US12227488B2, “Small molecule degraders of Helios and methods of use” (DANA-FARBER CANCER INSTITUTE, INC., priority 2018, dated 2025)

Assays:
IKZF2 = assay: Cellular degradation assay, eGFP-IKZF2Δ fusion with mCherry reporter in Flp-In 293 cells; assay type: cell-based; conditions: for IKZF2 GFP/RFP Relative Abundance: 5 h incubation, n=1
Method: (§1) IKZF1Δ, IKZF2Δ, GSPT1 and SALL4 ZnF1-2 were subcloned into mammalian pcDNA5/FRT Vector (Ampicillin and Hygromycin B resistant) modified to contain MCS-eGFP-P2A-mCherry. […] Following 2-3 passage cycle, FACS (FACSAria™ II, BD) was used to enrich for cells expressing eGFP and mCherry. Cells stably expressing the IKZF1Δ, IKZF2Δ, GSPT1 or SALL4 Znf1-2 GFP fusions with mCherry reporter were seeded at 30-50% confluency in 384-well plates with 50 μL FluoroBrite™ DMEM media (Thermo Fisher Scientific, A18967) containing 10% FBS per well a day before compound treatment. Compound titrations were dispensed using a D300e Digital Dispenser (HP), normalized to 0.5% DMSO, and incubated with cells for 5 hours.
(§2) The resulting images were analyzed using CellProfiler™. A series of image analysis steps (‘image analysis pipeline’) was constructed. First, the red and green channels were aligned and cropped to target the middle of each well (to avoid analysis of heavily clumped cells at the edges), and a background illumination function was calculated for both red and green channels of each well individually and subtracted to correct for illumination variations across the 384-well plate from various sources of error. An additional step was then applied to the green channel to suppress the analysis of large auto fluorescent artifacts and enhance the analysis of cell specific fluorescence by way of selecting for objects under a given size, 30 A.U., and with a given shape, speckles. mCherry-positive cells were then identified in the red channel filtering for objects between 8-60 pixels in diameter and using intensity to distinguish between clumped objects. The green channel was then segmented into GFP positive and negative areas and objects were labeled as GFP positive if at least 40% of it overlapped with a GFP positive area. The fraction of GFP-positive cells/mCherry-positive cells in each well was then calculated, and the green and red images were rescaled for visualization.
(§3) The degradation assay was performed as described above. […] Degradation was measured after 5 h of compound treatment and the concentrations that lead to half degradation at 5 h (DC50,5 h) were calculated using the nonlinear fit variable slope model (GraphPad Software).

IKZF1 = target: T1, IKZF1 (Homo sapiens, UniProt Q13422); assay: Cellular degradation assay, eGFP-IKZF1Δ fusion with mCherry reporter in Flp-In 293 cells; assay type: cell-based; conditions: for IKZF1 GFP/RFP Relative Abundance: 5 h incubation, n=1
T1 construct: expressed in transfected cells; host or cells: Flp-In 293
T1 sequence (Q13422 83-213 isoform Q13422-7 limits assumed): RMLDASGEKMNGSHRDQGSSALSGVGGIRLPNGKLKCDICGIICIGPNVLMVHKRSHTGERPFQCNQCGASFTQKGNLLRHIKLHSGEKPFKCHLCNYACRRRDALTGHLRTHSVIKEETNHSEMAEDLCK
T1 sequence (Q96SW2 whole entry partner, the tested form may be a part): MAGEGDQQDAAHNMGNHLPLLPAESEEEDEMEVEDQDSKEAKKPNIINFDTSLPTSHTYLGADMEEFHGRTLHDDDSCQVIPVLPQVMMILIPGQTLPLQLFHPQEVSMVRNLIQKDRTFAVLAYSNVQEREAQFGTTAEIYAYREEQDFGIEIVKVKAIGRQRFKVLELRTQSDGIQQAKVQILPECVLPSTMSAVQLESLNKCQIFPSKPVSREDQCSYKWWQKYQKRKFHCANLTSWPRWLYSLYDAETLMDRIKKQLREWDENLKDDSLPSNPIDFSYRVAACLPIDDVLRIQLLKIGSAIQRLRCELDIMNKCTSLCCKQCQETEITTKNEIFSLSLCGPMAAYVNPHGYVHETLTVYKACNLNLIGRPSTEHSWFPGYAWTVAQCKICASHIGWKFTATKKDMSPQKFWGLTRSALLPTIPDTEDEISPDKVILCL
T1 sequence (Q16531 2-1140 partner limits assumed): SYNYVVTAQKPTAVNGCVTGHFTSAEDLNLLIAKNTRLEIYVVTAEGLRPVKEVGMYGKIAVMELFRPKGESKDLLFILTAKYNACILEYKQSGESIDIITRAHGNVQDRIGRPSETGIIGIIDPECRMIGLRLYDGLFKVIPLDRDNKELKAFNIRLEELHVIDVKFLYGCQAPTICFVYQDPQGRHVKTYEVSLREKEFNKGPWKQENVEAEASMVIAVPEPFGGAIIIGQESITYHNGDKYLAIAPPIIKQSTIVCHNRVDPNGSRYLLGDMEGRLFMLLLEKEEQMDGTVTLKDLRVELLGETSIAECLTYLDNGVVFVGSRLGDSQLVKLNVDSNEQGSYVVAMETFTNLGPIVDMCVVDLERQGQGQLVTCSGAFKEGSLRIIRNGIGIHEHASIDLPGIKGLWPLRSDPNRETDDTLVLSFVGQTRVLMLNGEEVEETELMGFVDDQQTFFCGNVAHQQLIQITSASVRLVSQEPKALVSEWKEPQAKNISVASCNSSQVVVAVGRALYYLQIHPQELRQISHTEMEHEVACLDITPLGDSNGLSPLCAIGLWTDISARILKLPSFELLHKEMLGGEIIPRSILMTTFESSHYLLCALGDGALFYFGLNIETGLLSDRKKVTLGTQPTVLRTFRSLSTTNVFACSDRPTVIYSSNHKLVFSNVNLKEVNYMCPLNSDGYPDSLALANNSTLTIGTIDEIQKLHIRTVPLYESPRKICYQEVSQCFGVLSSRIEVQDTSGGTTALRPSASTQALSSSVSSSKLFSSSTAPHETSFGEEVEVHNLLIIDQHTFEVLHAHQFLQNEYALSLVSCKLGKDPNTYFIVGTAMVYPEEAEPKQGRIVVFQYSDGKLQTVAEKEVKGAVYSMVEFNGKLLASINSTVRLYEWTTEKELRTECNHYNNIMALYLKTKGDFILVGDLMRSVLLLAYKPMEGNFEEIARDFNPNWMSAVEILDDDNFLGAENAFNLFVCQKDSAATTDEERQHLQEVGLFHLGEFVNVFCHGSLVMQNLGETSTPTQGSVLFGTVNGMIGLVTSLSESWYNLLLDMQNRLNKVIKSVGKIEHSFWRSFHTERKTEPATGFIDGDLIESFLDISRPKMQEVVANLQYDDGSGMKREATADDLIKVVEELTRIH
Method: as §1, §2, §3

GSPT1 = GSPT1 (Homo sapiens, UniProt P15170+Q96SW2); assay: Cellular degradation assay, eGFP-GSPT1 fusion with mCherry reporter in Flp-In 293 cells; assay type: cell-based; design: expressed in transfected cells; host or cells: Flp-In 293; conditions: half degradation at 5 h (DC50,5 h); triplicate, 11 point dose response
Sequence of GSPT1 (P15170 whole entry, the tested form may be a part): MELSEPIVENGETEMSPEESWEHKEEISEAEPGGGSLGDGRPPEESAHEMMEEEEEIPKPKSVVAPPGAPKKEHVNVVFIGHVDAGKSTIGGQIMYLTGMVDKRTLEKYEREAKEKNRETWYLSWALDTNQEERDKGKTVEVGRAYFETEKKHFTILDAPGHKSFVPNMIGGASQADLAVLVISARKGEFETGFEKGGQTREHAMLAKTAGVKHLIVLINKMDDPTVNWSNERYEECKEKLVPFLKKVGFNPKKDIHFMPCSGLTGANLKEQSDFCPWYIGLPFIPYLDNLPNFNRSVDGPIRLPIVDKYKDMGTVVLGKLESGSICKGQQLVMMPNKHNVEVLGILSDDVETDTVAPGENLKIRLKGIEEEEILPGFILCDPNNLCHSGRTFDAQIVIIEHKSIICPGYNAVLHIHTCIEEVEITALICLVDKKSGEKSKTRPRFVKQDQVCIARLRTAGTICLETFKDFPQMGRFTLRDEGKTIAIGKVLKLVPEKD
Sequence of GSPT1 (Q96SW2 whole entry, the tested form may be a part): as the sequence (Q96SW2 whole entry partner, the tested form may be a part) above
Sequence of GSPT1 (Q16531 whole entry partner, the tested form may be a part): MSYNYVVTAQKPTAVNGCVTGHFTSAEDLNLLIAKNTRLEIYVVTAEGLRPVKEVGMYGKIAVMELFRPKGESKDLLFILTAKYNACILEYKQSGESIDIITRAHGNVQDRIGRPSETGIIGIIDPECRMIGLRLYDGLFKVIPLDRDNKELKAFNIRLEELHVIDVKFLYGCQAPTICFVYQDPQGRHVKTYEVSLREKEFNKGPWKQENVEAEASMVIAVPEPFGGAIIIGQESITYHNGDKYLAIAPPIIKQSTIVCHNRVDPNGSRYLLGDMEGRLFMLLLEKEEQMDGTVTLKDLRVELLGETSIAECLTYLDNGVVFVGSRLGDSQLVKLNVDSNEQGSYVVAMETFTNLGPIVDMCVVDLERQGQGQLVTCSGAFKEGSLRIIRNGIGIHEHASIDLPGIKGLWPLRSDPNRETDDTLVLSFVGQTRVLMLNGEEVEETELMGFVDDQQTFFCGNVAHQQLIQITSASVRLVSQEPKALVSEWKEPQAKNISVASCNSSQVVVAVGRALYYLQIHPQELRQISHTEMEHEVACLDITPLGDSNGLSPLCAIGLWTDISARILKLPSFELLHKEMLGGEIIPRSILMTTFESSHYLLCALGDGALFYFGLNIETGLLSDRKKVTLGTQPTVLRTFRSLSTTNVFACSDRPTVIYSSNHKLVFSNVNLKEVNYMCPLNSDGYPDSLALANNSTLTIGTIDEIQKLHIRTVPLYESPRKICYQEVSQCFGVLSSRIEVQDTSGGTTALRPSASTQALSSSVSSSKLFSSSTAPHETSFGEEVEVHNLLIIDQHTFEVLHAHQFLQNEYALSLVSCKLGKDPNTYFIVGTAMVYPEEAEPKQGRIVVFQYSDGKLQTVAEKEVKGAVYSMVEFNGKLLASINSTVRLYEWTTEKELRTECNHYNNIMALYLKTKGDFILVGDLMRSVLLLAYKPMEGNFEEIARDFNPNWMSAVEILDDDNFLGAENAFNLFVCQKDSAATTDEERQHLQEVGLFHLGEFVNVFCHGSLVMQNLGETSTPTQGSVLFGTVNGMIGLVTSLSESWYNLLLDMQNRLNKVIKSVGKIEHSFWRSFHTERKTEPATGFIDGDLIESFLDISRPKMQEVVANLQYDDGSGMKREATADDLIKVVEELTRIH
Method: as §1, §2, §3

CRBN and Helios (IKZF2) = target: T2, CRBN and Helios (IKZF2) (Homo sapiens, UniProt Q96SW2+Q9UKS7); assay: TR-FRET dimerization assay (CRBN-IKZF2 ternary complex formation); assay type: binding; conditions: n=1
T2 construct: His (N); Strep (N)
T2 sequence (Q96SW2 whole entry): as the sequence (Q96SW2 whole entry partner, the tested form may be a part) above
T2 sequence (Q9UKS7 whole entry): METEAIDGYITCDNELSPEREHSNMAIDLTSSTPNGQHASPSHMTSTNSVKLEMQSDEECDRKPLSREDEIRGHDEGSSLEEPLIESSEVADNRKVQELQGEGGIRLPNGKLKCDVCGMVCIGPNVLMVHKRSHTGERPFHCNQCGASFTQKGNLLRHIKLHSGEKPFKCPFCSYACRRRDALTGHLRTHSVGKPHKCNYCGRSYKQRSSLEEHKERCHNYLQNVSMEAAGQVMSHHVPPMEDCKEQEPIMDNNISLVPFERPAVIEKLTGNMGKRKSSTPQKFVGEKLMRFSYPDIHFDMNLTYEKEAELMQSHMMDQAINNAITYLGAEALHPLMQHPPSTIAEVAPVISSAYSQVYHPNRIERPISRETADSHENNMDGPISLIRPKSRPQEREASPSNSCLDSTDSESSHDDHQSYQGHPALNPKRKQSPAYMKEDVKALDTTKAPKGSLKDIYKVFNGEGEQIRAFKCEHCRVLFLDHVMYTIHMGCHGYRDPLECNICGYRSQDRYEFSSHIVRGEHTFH
Method: A focused library of imide analogs was synthesized and assessed for their ability to induce dimerization between CRBN and Helios in a time-resolved fluorescence energy transfer (TR-FRET) assay (FIG. 1A).
Prior to TR-FRET measurements being conducted, the reactions were incubated for 15 min at rt. […] The TR-FRET signal of each data point was extracted by calculating the 520/490 nm ratios. Data from single measurements (n=1), each calculated as an average of at least three technical replicates per well per experiment are presented in Table 1.
BODIPY-labeled CRBN in complex with Damage Specific DNA Binding Protein 1 (DDB1) harboring an internal deletion of the flexible BPB propeller (DDB1AB-CRBN) and in vitro biotinylated IKZF2 were treated with increasing concentrations of the indicated compounds in the presence of tracer amounts of Terbium-Streptavidin (Tb-SA). Compound-induced recruitment of IKZF2 to CRBN was quantified following the 520/490 TR-FRET ratio using a PHERAstar® plate reader (BMG) utilizing two synchronized PMTs to reduce background.

[1] = half degradation at 5 h (DC50,5 h), triplicate, 11 point dose response
[2] = compound concentration 2.00E−05
[3] = compound concentration 2.00E−06
[4] = compound concentration 2.00E−07
[5] = compound concentration 6.6667E−05
[6] = compound concentration 6.6667E−06
[7] = compound concentration 6.6667E−07 (667 nM)

Structure (SMILES)	DC50 (IKZF2; [1])	DC50 (IKZF1; [1])	DC50 (GSPT1)	IKZF2 GFP/RFP Relative Abundance (IKZF2; [2])	IKZF2 GFP/RFP Relative Abundance (IKZF2; [3])	IKZF2 GFP/RFP Relative Abundance (IKZF2; [4])	IKZF1 GFP/RFP Relative Abundance (IKZF1; [2])	IKZF1 GFP/RFP Relative Abundance (IKZF1; [3])	IKZF1 GFP/RFP Relative Abundance (IKZF1; [4])	TR-FRET-IKZF2 (Normalized to CC-885) (CRBN and Helios (IKZF2); [5])	TR-FRET-IKZF2 (Normalized to CC-885) (CRBN and Helios (IKZF2); [6])	TR-FRET-IKZF2 (Normalized to CC-885) (CRBN and Helios (IKZF2); [7])
O=C1CCC(N2C(=O)C=C(Nc3cccc(CCC(=O)Nc4cccc(C(F)(F)F)c4)c3)C2=O)C(=O)N1 (stereo not drawn) [Compound 148, 3-(3-((1-(2,6-dioxopiperidin-3-yl)-2,5-dioxo-2,5-dihydro-1H-pyrrol-3-yl)amino)phenyl)-N-(3-(trifluoromethyl)phenyl)propanamide]	13 nM	3.2 nM	> 1000 nM	–	–	–	–	–	–	–	–	–
O=C1CCC(N2C(=O)C=C(Nc3cccc(CNC(=O)NCc4ccccc4)c3)C2=O)C(=O)N1 (stereo not drawn) [Compound 81, 1-benzyl-3-(3-((1-(2,6-dioxopiperidin-3-yl)-2,5-dioxo-2,5-dihydro-1H-pyrrol-3-yl)amino)benzyl)urea]	–	–	–	0.587	0.660	0.737	0.063	0.056	0.094	0.703	0.585	0.519
Cc1ccc(NC(=O)N2CCc3ccc(NC4=CC(=O)N(C5CCC(=O)NC5=O)C4=O)cc3C2)cc1Cl (stereo not drawn) [Compound 109, N-(3-chloro-4-methylphenyl)-7-((1-(2,6-dioxopiperidin-3-yl)-2,5-dioxo-2,5-dihydro-1H-pyrrol-3-yl)amino)-3,4-dihydroisoquinoline-2(1H)-carboxamide]	–	–	–	0.563	0.313	0.539	0.189	0.101	0.142	0.463	0.640	0.506
Cc1ccc(NC(=O)Nc2cccc3c(NC4=CC(=O)N(C5CCC(=O)NC5=O)C4=O)cccc23)cc1Cl (stereo not drawn) [Compound 124, 1-(3-chloro-4-methylphenyl)-3-(5-((1-(2,6-dioxopiperidin-3-yl)-2,5-dioxo-2,5-dihydro-1H-pyrrol-3-yl)amino)naphthalen-1-yl)urea]	–	–	–	0.829	1.015	0.985	0.689	0.978	1.005	0.159	0.130	0.077
Cc1ccc(NC(=O)N[C@H](C)c2cccc(NC3=CC(=O)N(C4CCC(=O)NC4=O)C3=O)c2)cc1Cl (stereo partly drawn) [Compound 70, 1-(3-chloro-4-methylphenyl)-3-((1R)-1-(3-((1-(2,6-dioxopiperidin-3-yl)-2,5-dioxo-2,5-dihydro-1H-pyrrol-3-yl)amino)phenyl)ethyl)urea]	–	–	–	0.021	0.057	0.031	0.076	0.080	0.103	1.531	1.409	1.271
